Assay: Example 2 multiple rising dose inhaled delta-9-THC study: plasma pharmacokinetics
Description: A randomized, double-blind, placebo-controlled, multiple rising dose safety, tolerability, pharmacokinetic and pharmacodynamic study to assess two dose levels of inhaled delta-9-THC was conducted. Dose levels were studied in ascending order. Two consecutive groups (n=9/group) of healthy subjects were studied (Groups I and II). […] There was a lapse of at least 10 days between the groups for interim safety and pharmacokinetic analysis. Two dose levels were studied in ascending order. […] Subjects in each treatment Group (I or II) received single and multiple doses of inhaled delta-9-THC according to the following schedule:
For both dose levels, the first and the last dose of study drug was given under fasted conditions. Subjects were confined to the study site from the evening of Day −2 (Day 1 is the day of administration of the first dose of study drug) until the 120-hour blood sample following the final dose of study drug, resulting in an 18-day confinement period for subjects in Group I and a 25-day confinement period for Group II. Between the completion of Group I and the start of Group II, an interim safety and pharmacokinetic analysis was performed. Based on the results of the interim analyses, the dose level for investigation in Group II was determined.
Two MDI dosage strengths were used corresponding to the same formulations used in Example 1: one delivering 0.3 mg delta-9-THC (or placebo) per actuation and one delivering 1.2 mg delta-9-THC (or placebo) per actuation. The MDI consisted of a pressurized (via propellants) container and a metered-dose valve. The propellants provided the necessary force to expel the drug, and also acted as a solvent and diluent. The canister unit was provided within a mouthpiece (oral adapter), to expel an exact amount of drug, in the proper particle size distribution, upon each actuation. Two basic formulations containing 0.3 and 1.2 mg of delta-9-THC per 50 μL were developed with propellant 1,1,1,2 tetrafluoroethane 134a (HFA 134a), and ethanol as solvent. The formulations were made in accordance with the composition used in Example 1.
Whole blood samples were collected according to the assessment flowchart in EDTA tubes through venepuncture or indwelling catheter. Samples were immediately placed on ice and subsequently centrifuged within 30 minutes at 1,500 g for 10 minutes. Plasma was transferred into a 5 ml screw cap polypropylene tube, stoppered and stored at below minus 20° C. until transfer to the analytical laboratory for analysis. […] The measurement ranges were 0.05-30 ng/ml for delta-9-THC, 0.04-30 ng/ml for 11-OH-THC, and 0.25-10 ng/ml for THC-COOH.
For Example 2: The statistical analysis encompassed an exploratory analysis of the single and multiple dose pharmacokinetics and dose proportionality of two dose levels of inhaled delta-9-THC in healthy subjects. Descriptive statistics included number of subjects, mean, standard deviation, coefficient of variation (%) and geometric mean for all pharmacokinetic parameters.
The exploratory analysis was performed on the logarithms of the dose-normalized pharmacokinetic parameters AUC(0-inf), AUC(0-t), AUC(0-τ) and Cmax. Dose proportionality was tested both at single dose and at multiple dose (steady state) by comparing the dose groups for all pharmacokinetic parameters by an analysis of variance with dose as fixed effect.
Dose proportionality was tested by the contrast between the dose groups. For this contrast on the logarithmic scale, p-values were given. After anti-logarithmic transformation, the resultant ratios of geometric means and 90% confidence intervals were given.
Accumulation was tested by comparing the steady state values for AUC(0-τ) with the single dose values for AUC(0-τ) by a mixed model analysis of variance with dose and day (with levels single dose and steady state) as fixed effects and subject within dose as random effect.

CCCCCc1cc(O)c2c(c1)OC(C)(C)C1CCC(C(=O)O)=CC21 (stereo not drawn) [THC-COOH, delta-9-tetrahydrocannbinol-carboxylic acid]
achievement of steady state (1.2 mg delta-9-THC three times daily): lack of steady state
Cmax, Geometric Mean (Range) (1.2 mg m.d. (three times daily), Day 12, Group I): 7.97 (6.03-10.9) ng/mL
AUC(0-8), Arithmetic Mean (SD) (1.2 mg m.d., Day 12, Group I): 51.9 (14.7) ng · h/mL
AUC(0-8), Geometric Mean (Range) (1.2 mg m.d., Day 12, Group I): 50.1 (34.1-69.8) ng · h/mL
Cmax, Arithmetic Mean (SD) (1.2 mg m.d., Day 12, Group I): 8.15 (1.87) ng/mL
tmax, Arithmetic Mean (SD) (1.2 mg m.d., Day 12, Group I): 0.86 (0.88) h
tmax, median (range) (1.2 mg m.d., Day 12, Group I): 0.33 (0.25-2.00) h
t½, Arithmetic Mean (SD) (1.2 mg m.d., Day 12, Group I): 32.1 (9.07) h
t½, Geometric Mean (Range) (1.2 mg m.d., Day 12, Group I): 31.0 (23.2-43.8) h
AUC(0-8), Arithmetic Mean (SD) (1.2 mg s.d., Day 1): 18.5 (3.85) ng · h/mL
AUC(0-8), Geometric Mean (Range) (1.2 mg s.d., Day 1): 18.2 (13.0-24.2) ng · h/mL
AUC(0-inf), Arithmetic Mean (SD) (1.2 mg s.d., Day 1): 83.6 (18.5) ng · h/mL
AUC(0-inf), Geometric Mean (Range) (1.2 mg s.d., Day 1): 82.0 (60.5-110) ng · h/mL
tmax, Arithmetic Mean (SD) (1.2 mg s.d., Day 1): 1.54 (0.75) h
tmax, median (range) (1.2 mg s.d., Day 1): 2.00 (0.25-2.00) h
t½, Arithmetic Mean (SD) (1.2 mg s.d., Day 1): 33.9 (12.8) h
t½, Geometric Mean (Range) (1.2 mg s.d., Day 1): 32.0 (23.9-50.6) h
Cmax, Arithmetic Mean (SD) (1.2 mg s.d., Day 1, plasma): 3.81 (0.56) ng/mL
Cmax, Geometric Mean (Range) (1.2 mg s.d., Day 1, plasma): 3.77 (2.81-4.40) ng/mL
Cmax, Geometric Mean (Range) (3.6 mg m.d. (three times daily), Day 19, Group II): 25.5 (13.2-45.0) ng/mL
AUC(0-8), Arithmetic Mean (SD) (3.6 mg m.d., Day 19, Group II): 182 (97.5) ng · h/mL
AUC(0-8), Geometric Mean (Range) (3.6 mg m.d., Day 19, Group II): 159 (75.5-317) ng · h/mL
Cmax, Arithmetic Mean (SD) (3.6 mg m.d., Day 19, Group II): 28.1 (12.7) ng/mL
tmax, Arithmetic Mean (SD) (3.6 mg m.d., Day 19, Group II): 1.03 (0.79) h
tmax, median (range) (3.6 mg m.d., Day 19, Group II): 0.75 (0.33-2.00) h
t½, Arithmetic Mean (SD) (3.6 mg m.d., Day 19, Group II): 39.6 (15.3) h
t½, Geometric Mean (Range) (3.6 mg m.d., Day 19, Group II): 37.4 (24.0-62.3) h
AUC(0-8), Arithmetic Mean (SD) (3.6 mg s.d., Day 1): 47.1 (17.5) ng · h/mL
AUC(0-8), Geometric Mean (Range) (3.6 mg s.d., Day 1): 44.5 (30.2-74.4) ng · h/mL
AUC(0-inf), Arithmetic Mean (SD) (3.6 mg s.d., Day 1): 172 (85.6) ng · h/mL
AUC(0-inf), Geometric Mean (Range) (3.6 mg s.d., Day 1): 152 (64.8-283) ng · h/mL
tmax, Arithmetic Mean (SD) (3.6 mg s.d., Day 1): 2.33 (0.52) h
tmax, median (range) (3.6 mg s.d., Day 1): 2.00 (2.00-3.00) h
t½, Arithmetic Mean (SD) (3.6 mg s.d., Day 1): 23.8 (11.3) h
t½, Geometric Mean (Range) (3.6 mg s.d., Day 1): 21.7 (11.3-39.2) h
Cmax, Arithmetic Mean (SD) (3.6 mg s.d., Day 1, plasma): 8.75 (3.16) ng/mL
Cmax, Geometric Mean (Range) (3.6 mg s.d., Day 1, plasma): 8.34 (6.01-14.4) ng/mL
achievement of steady state (3.6-mg dose level three times daily): achieved after seven or eight days of dosing
accumulation during multiple dosing (8-hours dosing interval): accumulation occurred during multiple dosing
Ratio AUC(0-8) m.d./AUC(0-8) s.d. (Accumulation factor), Mean (Group I, 1.2 mg): 2.90
Ratio AUC(0-8) m.d./AUC(0-inf) s.d. (Linearity), Mean (Group I, 1.2 mg): 0.65
Ratio AUC(0-8) m.d./AUC(0-8) s.d. (Accumulation factor), Mean (Group II, 3.6 mg): 3.92
Ratio AUC(0-8) m.d./AUC(0-inf) s.d. (Linearity), Mean (Group II, 3.6 mg): 1.11
dose proportionality: geometric mean ratio (3.6 mg:1.2 mg) of dose-normalized AUC(0-8) (90% confidence interval) (Multiple dose): 1.05 (0.65-1.71)
dose proportionality: geometric mean ratio (3.6 mg:1.2 mg) of dose-normalized Cmax (90% confidence interval) (Multiple dose): 1.07 (0.71-1.60)
dose proportionality: geometric mean ratio (3.6 mg:1.2 mg) of dose-normalized AUC(0-8) (90% confidence interval) (Single dose): 0.82 (0.60-1.11)
dose proportionality: geometric mean ratio (3.6 mg:1.2 mg) of dose-normalized AUC(0-inf) (90% confidence interval) (Single dose): 0.62 (0.39-0.98)
dose proportionality: geometric mean ratio (3.6 mg:1.2 mg) of dose-normalized AUC(0-t) (90% confidence interval) (Single dose): 0.61 (0.34-1.09)
dose proportionality: geometric mean ratio (3.6 mg:1.2 mg) of dose-normalized Cmax (90% confidence interval) (Single dose): 0.74 (0.56-0.96)
exposure, fold higher compared to the parent (after both single and multiple dose administration): approximately 10 fold
Cmax, fold lower compared to the parent compound (after single dosing): 5 fold
dose proportionality of pharmacokinetic parameters (after single or multiple dose administration): not found to deviate significantly
plasma concentration-time curve, elimination profile (both dose levels): almost no distribution phase and a multi-phasic elimination phase
time of peak plasma concentration (both dose levels, post-dose): between 15 minutes and 3 hours post-dose
ratios of AUC(0-8) after multiple dosing versus AUC(0-inf) after single dose (linearity) (in vivo): did not deviate clearly or significantly from unity
Cmax and AUC values versus dose (single and multiple dose administration, 1.2 and 3.6 mg): Dose-related increases
Terminal elimination half-lives (summary estimate) (summary, best estimated after multiple dosing): ~30 h

Source: patent US20070020193A1, “Dronabinol compositions and methods for using same” (priority 2005, published 2007)
